Measurements from patent publication US4119629A, “Certain azaphenoxathiin compounds” (priority 1977, dated 1978).
Read-outs that look alike come from different tables or passages of the source.

How the values were obtained:
[1] = format: in vivo, mice; settings: 50 mg/kg
Text: The following table illustrates utility of the compounds of the present invention as weight control agents.
Table of Weight Control Observed
With 1,5-bis(thiophenyl)-2-nitrobenzene
Animal (mg/kg) (grams) Date

[2] = Toxicity, survival time after im injection in DMSO; format: in vivo, mice
Text: The following represents initial test observations for one of the above identified compounds.
Table of Toxicity Data for
1,5-bis(thiophenyl)-2-nitrobenzene* (2e)
Animal** (mg/kg im DMSO) Time (Days)
**All mice were tail-coded.
***Sacrificed at the end of 14 days.

[3] = Strychnine anticonvulsant study; format: in vivo; settings: for Average Onset Time: saline control 3.10
Text: TABLE OF STRYCHNINE ANTICONVULSANT STUDY
WITH 7-NITRO-1-AZAPHENOXATHIIN
Test Group Time (min) Deviation Error
______________________________________

[4] = Preliminary toxicity testing of 7-nitro-1-azaphenoxathiin
Description: These tests were run simultaneously using chloropromazine as a control. This compound was tested at doses of 50, 100 and 200 mg/kg.

[5] = Hexobarbital sleeping time potentiation; format: in vivo; settings: control 58.5
Description: (§1) Further, the action of the drug at 200 mg/kg in the spontaneous motor activity test tends to reverse with greater activity observed (47%). An additional set of data was also acquired for this compound which was barbiturate induced sleeping time potentiation. […] Thus, compounds that may be prepared in accordance with Equation 3 above are: […]
(§2) Table of Barbiturate Sleeping Time Potentiation With
(§3) 7-Chloro-1-Azaphenoxathiin
Hexobarbital Sleeping Time Potentiation
(§4) Dose (mg/kg) Mean (min) SE (min)

[6] = LD50 studies of 7-chloro-1-azaphenoxathiin; format: in vivo
Text: Table of LD50 Studies of 7-chloro-1-azaphenoxathiin
Test Animal Survival Time
Group* Dose (mg/kg) (Days)
*All animals were tail-coded
**LD50; dependent on the toleration of the animal for this drug

[7] = Barbital sleeping time potentiation; format: in vivo; settings: control 125.4
Description: as §1, §2, §3, §4
Barbital Sleeping Time Potentiation

[8] = Spontaneous and forced motor activity tests; format: in vivo
Description: as §1

[9] = Barbiturate induced sleeping time potentiation; format: in vivo; settings: in all cases
Description: as §1

[10] = Effect on body temp., heart rate, and respiration in rats; format: in vivo; settings: 100 mg/kg i.p.
Description: TABLE OF EFFECT OF 7-CHLORO-1-AZAPHENOXATHIIN 100 MG/KG I.P. ON
BODY TEMP., HEART RATE, AND RESPIRATION IN RATS

`O=[N+]([O-])c1ccc(Sc2ccccc2)cc1Sc1ccccc1` [1,5-bis(thiophenyl)-2-nitrobenzene] showed a Weight ([1]; animal #5, 7/16/77) of 16.0 grams, a Weight ([1]; animal #5, 7/17/77) of 15.8 grams and a Weight ([1]; animal #5, 7/18/77) of 16.0 grams. For the same compound, the Weight ([1]; animal #5, 7/19/77) was 16.0 grams, the Weight ([1]; animal #5, 7/20/77) was 16.0 grams and the Weight ([1]; animal #5, 7/21/77) was 16.0 grams. The “death resulting from decreased CNS activity” value [2] was “death at higher doses”.
For `O=[N+]([O-])c1ccc2c(c1)Oc1cccnc1S2` [7-nitro-1-azaphenoxathiin], the “activity as an anticonvulsant” value [3] was “essentially no activity”, the “Average Onset Time” value ([3]; 50 mg/kg) was 3.21 min and the “Average Onset Time” value ([3]; 100 mg/kg) was 3.06 min. For the same compound, the “Average Onset Time” value ([3]; 200 mg/kg) was 3.06 min and the toxicity [4] was “surprisingly low toxicity”.
For `Clc1ccc2c(c1)Oc1cccnc1S2` [7-chloro-1-azaphenoxathiin], the “Hexobarbital Sleeping Time, Mean” value ([5]; 25 mg/kg) was 79.8 min, the “Hexobarbital Sleeping Time, Mean” value ([5]; 50 mg/kg, p<0.05) was 81.9 min and the “Hexobarbital Sleeping Time, Mean” value ([5]; 100 mg/kg, p<0.05) was 104.4 min. For the same compound, the “Survival Time” value ([6]; 50 mg/kg, group 1, 14-day test period) was 14 days, the “Survival Time” value ([6]; 100 mg/kg, group 2, 14-day test period) was 14 days and the “Survival Time” value ([6]; 250 mg/kg, group 3, 14-day test period) was 14 days. The “Survival Time” value ([6]; 500 mg/kg, group 4, 14-day test period) was 14 days, the “survival of the 14-day test period” value ([6]; 750 mg/kg) was “several lived the 14-day test period” and the “Survival Time” value ([6]; 750 mg/kg, group 5, LD50, dependent on the toleration of the animal) was 0 to 14 days. The “Survival Time” value ([6]; 1,000 mg/kg, group 6) was 0 days, the “Survival Time” value ([6]; 1,500 mg/kg, group 7) was 0 days and the LD50 ([6]; in vivo) was about 750 mg/kg. For the same compound, the tolerability ([6]; test animals) was “generally well tolerated”, the “Barbital Sleeping Time, Mean” value ([7]; 25 mg/kg) was 120.6 min and the “Barbital Sleeping Time, Mean” value ([7]; 50 mg/kg) was 155.1 min. The “Barbital Sleeping Time, Mean” value ([7]; 100 mg/kg) was 179.5 min, the “greater activity observed in the spontaneous motor activity test” value ([8]; 200 mg/kg, action tends to reverse) was 47% and the “potency in both spontaneous and forced motor activity tests” value ([8]; compared with 7-nitro-1-azaphenoxathiin) was “somewhat more potent than the former”. For the same compound, the “barbiturate induced sleeping times” value [9] was “prolongation of barbiturate induced sleeping times”, the H.R. ([10]; time 0, N 5) was 331.2 Beats/Min and the Resp ([10]; time 0, N 5) was 120.8 Breath/Min. The Temp ([10]; time 0, N 5) was 38.5 °C, the H.R. ([10]; time 30, N 4) was 314.0 Beats/Min and the “H.R. Δ From Veh” value ([10]; time 30, N 4) was -34.0 Beats/Min. For the same compound, the Resp ([10]; time 30, N 4) was 101.2 Breath/Min, the “Resp Δ From Veh” value ([10]; time 30, N 4) was -33.1 Breath/Min and the Temp ([10]; time 30, N 4) was 37.6 °C. The “Temp Δ From Veh” value ([10]; time 30, N 4) was -0.4 °C, the H.R. ([10]; time 60, N 4) was 288.0 Beats/Min and the “H.R. Δ From Veh” value ([10]; time 60, N 4) was -36.0 Beats/Min. For the same compound, the Resp ([10]; time 60, N 4) was 79.7 Breath/Min, the “Resp Δ From Veh” value ([10]; time 60, N 4) was -65.9 Breath/Min and the Temp ([10]; time 60, N 4) was 36.8 °C. For the same compound, the “Temp Δ From Veh” value ([10]; time 60, N 4) was -2.4 °C, the H.R. ([10]; time 120, N 4) was 273.0 Beats/Min and the “H.R. Δ From Veh” value ([10]; time 120, N 4) was -55.0 Beats/Min. The Resp ([10]; time 120, N 4) was 70.0 Breath/Min, the “Resp Δ From Veh” value ([10]; time 120, N 4) was -49.2 Breath/Min and the Temp ([10]; time 120, N 4) was 35.8 °C. For the same compound, the “Temp Δ From Veh” value ([10]; time 120, N 4) was -2.4 °C, the H.R. ([10]; time 180, N 4) was 270.0 Beats/Min and the “H.R. Δ From Veh” value ([10]; time 180, N 4) was -66.0 Beats/Min. For the same compound, the Resp ([10]; time 180, N 4) was 78.2 Breath/Min, the “Resp Δ From Veh” value ([10]; time 180, N 4) was -41.8 Breath/Min and the Temp ([10]; time 180, N 4) was 35.4 °C. The “Temp Δ From Veh” value ([10]; time 180, N 4) was -3.4 °C, the H.R. ([10]; time 240, N 4) was 289.0 Beats/Min and the “H.R. Δ From Veh” value ([10]; time 240, N 4) was -51.0 Beats/Min. The Resp ([10]; time 240, N 4) was 82.3 Breath/Min, the “Resp Δ From Veh” value ([10]; time 240, N 4) was -33.0 Breath/Min and the Temp ([10]; time 240, N 4) was 35.0 °C. For the same compound, the “Temp Δ From Veh” value ([10]; time 240, N 4) was -3.6 °C.
